Values of other authors as cited in publication PMC4123439 (Bioorganic & medicinal chemistry, 2009).

System: Tdp1
Conditions: at concentrations of up to 1 mM

## COS(=O)(=O)c1ccc(C)cc1 [methyl p-toluene sulfonate]
  Tdp1 inhibitory activity: inactive
